Test system: neuropathic pain caused by oxaliplatin in rats
Assay: Randall-Selitto pain thresholds in rats given repeated intraperitoneal oxaliplatin (chemo-induced neuropathic pain model)
Experimental: A preclinical study in rats was carried out.
In order to mimic the clinical use as closely as possible, a series of 8 intraperitoneal injections of oxaliplatin were given every 3 to 4 days, as illustrated in FIG. 2. This model is well known in the literature and gives an account of chemo-induced neuropathic pain.
The pain thresholds were evaluated by means of a Randall-Selitto device by applying an increasing pressure to the paw of the rat until the animal lets out a cry. The corresponding weight in grams is then noted (the Y-axis in FIG. 2). Thus, the earlier the animal cries out, for a low weight, the more pain it has.

O=C1[O][Pt]2([NH][C@@H]3CCCC[C@H]3[NH]2)[O]C1=O [oxaliplatin]
pain thresholds (Randall-Selitto, weight at which the animal cries out) (group B: oxaliplatin 2 mg/kg, 8 intraperitoneal injections every 3 to 4 days, with N2/O2 (50%-50%) control gas for 1 hour, control group A 200 g): approximately 150 g | persistence of hypersensitivity to pain after the final administration of oxaliplatin (group B, final administration on D25, still present on D42): more than 2 weeks

[Xe] [xenon]
hypersensitivity to pain (pain threshold curve versus control group A) (rats given oxaliplatin 2 mg/kg, gas/O2 (50%-50%) inhaled for 1 hour with each administration): no sign of hypersensitivity to pain

From patent US20130095194A1 (L'Air Liquide, Société Anonyme pour I'Etude et …, priority 2011, published 2013)
